What was measured:
[1] = system: ovarian cancer cell line CaOV3; test: cell-growth-on-bead assay, CaOV3; format: cell-based, human
Description: (§1) The ratio of cells to beads is preferably about 10:1, but can range from about 1:1 to 100:1. The suspension of cells 10 and beads 12 is mixed gently for sufficient time to assure contact of beads 12 with suspended cells 10. The culture plates are incubated in a tissue culture incubator at about 4° C. to about 37° C., preferably 37° C., for a period of about 24 to about 72 hours. The suspension of cells 10 and beads 12 may be kept still or mixed, either continuously or intermittently, during the incubation period.
(§2) After the incubation period, beads 12 are observed under a dissecting microscope. […] These beads 14 (referred to as “positive” beads) are removed from the culture plates. A tetrazolium dye that stains live, but not dead, cells can be used to facilitate the identification and removal of the positive beads. If a dye is used, all of the beads are removed after the incubation period and resuspended in fresh medium in new culture plates. The dye is added. The plates are then incubated in a tissue culture incubator at 25° C. to 37° C. for about one to four hours. Live cells 10 convert the dye to a colored metabolite, which results in beads 14 with attached cells appearing colored, allowing them to be easily distinguished from beads 16 without attached cells, which appear colorless, as shown in FIG. 1E. Other dyes that stain live cells can also be used. After positive beads 14 are removed from the plates, attached cells 10 are separated from the beads. This can be done with the addition of a chaotrophic agent, such as 8 M guanidine hydrochloride, or a protease, such as trypsin.
(§3) About 150,000 peptide beads were mixed with approximately one million suspended cells in 15 ml of culture medium and distributed into six 3-cm culture plates. The culture plates were agitated gently at about 100 rpm for about 10 minutes. The culture plates were then incubated in a tissue culture incubator at 37° C. for about 24 hours to about 72 hours.
(§4) A dissecting microscope was used to examine the beads at about 24, 48, and 72 hours. After about 24 to 72 hours, beads with a monolayer of cells were observed.
(§5) At the end of the incubation period, all of the beads were removed and resuspended in fresh medium in a new culture plate. An MTT ([3-(4,5-dimethylthiazol-2-yl)-2,5-diphenyl] tetrazolium bromide) (Sigma, St. Louis, Mo.) dye solution was added to each culture plate to a final concentration of 0.5 mg/ml. The plates were incubated in a tissue culture incubator at 37° C. for about two hours to allow the purple color to develop. Each purple-colored peptide bead was isolated and removed. The attached cells were separated from the beads with 8 M guanidine hydrochloride.
(§6) The amino acid sequence of each isolated peptide bead was determined using an automated Procise 494 protein sequencer (Applied Biosystems, Foster City, Calif.). Several consensus peptide sequences were determined, one of which was cNGRGEQc. This peptide was resynthesized on beads, which were then rescreened with the A549 cells using the assay of the invention.
The method as described in Example 1 was performed, except that the combinatorial peptide library was screened with a different type of epithelial cancer cells, the ovarian cancer cell line CaOV3 (American Type Culture Collection).
(§7) As described in Example 1, after culturing for about 24 to 72 hours, beads with a monolayer of cells were observed. These positive beads were isolated and the amino acid sequence of each positive bead was determined, as described in Example 1.
The method as described in Example 1 was performed, except that a different combinatorial library was used and different types of epithelial cancer cells were used. The peptide library of Example 3 was used, except that the concentration of peptides on the surface of each bead was 20% of that used in Example 3, resulting in an increase in screening stringency. […]

epithelial cells = test: secondary library screening and structure/activity relationship studies; format: cell-based
Source text: Through additional secondary library screening and structure/activity relationship studies, other ligands for epithelial cells have been identified, including the following: • c-D-G-Chg-G-A-N-c; c-N-G-Bpa-G-Q-M-c; c-N-G-Acdt-G-D-Bpa-c; cNGTGDGc; • cNGQGAGc; cNGYGSFc; c-N-G-Nle-G-Y-G-c; cNGMGAYc; cNGQGEQc; • cRGNGTDc; cNGQGPLc; cNGLGRSc; cDGMGSNc; cNGLGQYc; and • cNGYGTTc.

[2] = system: non-epithelial glioblastoma brain cancer cell line A-172; test: cell-growth-on-bead assay, A-172; format: cell-based, human; settings: Example 5, library of Example 3, 24 to 72 hours
Description: as §1, §2, §3, §4, §5, §6
The method as described in Example 1 was performed, except that a different combinatorial library was used and non-epithelial cancer cells were used. A one-bead-one-compound combinatorial peptide library was prepared as described in Example 3.
The peptide library was screened with the non-epithelial glioblastoma brain cancer cell line A-172 (American Type Culture Collection).
as §7

[3] = system: epithelial ovarian cancer cell line OVCAR-3; test: cell-growth-on-bead assay, OVCAR-3; format: cell-based, human; settings: Example 4, cX2GX4GX6X7c library, peptide concentration on bead surface 20% of Example 3
Description: as §1, §2, §3, §4, §5, §6
The method as described in Example 1 was performed, except that a different combinatorial library was used and different types of epithelial cancer cells were used. The peptide library of Example 3 was used, except that the concentration of peptides on the surface of each bead was 20% of that used in Example 3, resulting in an increase in screening stringency.
The peptide library was screened with one of the following epithelial ovarian cancer cell lines: CaOV3, SKOV-3, ES-2 and OVCAR-3 (American Type Culture Collection).
as §7

[4] = system: epithelial ovarian cancer cell line SKOV-3; test: cell-growth-on-bead assay, SKOV-3; format: cell-based, human
Description: as §1, §2, §3, §4, §5, §6
(§8) The method as described in Example 1 was performed, except that a different combinatorial library was used and different types of epithelial cancer cells were used. A one-bead-one-compound combinatorial peptide library was prepared according to the method described in Example 1, with the following formula: cX2GX4GX6X7c, where “c” is D-cysteine; “G” is glycine; X2 is D,d,N, n, S,Q,q,T, HoSer, Cit, E, e, HoCit, Hyp, Aad, Lys(Ac), A, 4-Pal, D-3-Pal, Pra, D-Pra, Y, Aib, M, Phe(4-CN), Tyr(3-NO2), Tyr(Me), Phe(4-NO2), Bug, Ach, Tyr(3,5-I), Aic, Phe(3-Cl), Chg, Bta, Bpa, Phe(3,4-Cl), Hyp(Bzl), or Cha; and X4, X6 and X7 are N, S, Q, T, HoSer, Cit, HoCit, Hyp, H, A, Pal, D-3-Pal, Pra, R, Y, Aib, Abu, P, M, V, Nva, Tyr(3-NO2), W, Phg, Phe(4-NO2), Bug, I, Ach, L, Nle, Phe(4-Me), Aic, Phe(3-Cl), HoPhe, Chg, Bta, Bpa, 2-Nal, 1-Nal, Phe(3,4-Cl), Hyp(Bzl), or Cha. […]

[5] = system: epithelial ovarian cancer cell line ES-2; test: cell-growth-on-bead assay, ES-2; format: cell-based, human
Description: as §1, §2, §3, §4, §5, §6, §8

[6] = Example 4, cX2GX4GX6X7c library, peptide concentration on bead surface 20% of Example 3
[7] = Example 3, cX2GX4GX6X7c library, 24 to 72 hours
[8] = Example 2, cXXXXXXc library, 24 to 72 hours

c-D-G-Cha-G-Hyp-N-c
identified as ligand (positive bead with monolayer of cells) [1, 6]: identified

c-D-G-Chg-G-A-N-c
identified as ligand for epithelial cells (epithelial cells): identified

c-D-G-L-G-P-HoPhe-c
identified as ligand (positive bead with monolayer of cells) [2]: identified

c-N-G-Acdt-G-D-Bpa-c
identified as ligand for epithelial cells (epithelial cells): identified

c-N-G-Bpa-G-Q-M-c
identified as ligand for epithelial cells (epithelial cells): identified

c-N-G-Nle-G-(4-Pal)-M-c
identified as ligand (positive bead with monolayer of cells) [2]: identified

c-N-G-Nle-G-Y-G-c
identified as ligand for epithelial cells (epithelial cells): identified

c-Nle-G-Nle-G-Tyr(3-NO2)-L-c
identified as ligand (positive bead with monolayer of cells) [3]: identified

c-Tyr(3-NO2)-G-F-G-(Pal-3D)-HoSer-c
identified as ligand (positive bead with monolayer of cells) [3]: identified

c-d-G-(4-Pal)-G-Phe (4-Me)-T-c
identified as ligand (positive bead with monolayer of cells) [2]: identified

c-d-G-(4-Pal)-G-Tyr(3-NO2)-Cha-c
identified as ligand (positive bead with monolayer of cells) [4, 7]: identified

c-d-G-A-G-Bta-L-c
identified as ligand (positive bead with monolayer of cells) [4, 6]: identified

c-d-G-Aib-G-Aib-N-c
identified as ligand (positive bead with monolayer of cells) [5, 6]: identified

c-d-G-Aib-G-P-S-c
identified as ligand (positive bead with monolayer of cells) [5, 6]: identified

c-d-G-Bta-G-Hyp-Y-c
identified as ligand (positive bead with monolayer of cells) [5, 6]: identified

c-d-G-Cha-G-1-T-c
identified as ligand (positive bead with monolayer of cells) [4, 7]: identified

c-d-G-Cha-G-Bta-Q-c
identified as ligand (positive bead with monolayer of cells) [5, 6]: identified

c-d-G-Cha-G-HoCit-Q-c
identified as ligand (positive bead with monolayer of cells) [5, 6]: identified

c-d-G-Cha-G-HoCit-S-c
identified as ligand (positive bead with monolayer of cells) [5, 7]: identified

c-d-G-Chg-G-Hyp-N-c
identified as ligand (positive bead with monolayer of cells) [1, 6]: identified

c-d-G-Cit-G-Hyp(Bzl)-M-c
identified as ligand (positive bead with monolayer of cells) [4, 7]: identified

c-d-G-HoCit-G-P-Q-c
identified as ligand (positive bead with monolayer of cells) [5, 6]: identified

c-d-G-HoCit-G-T-Nva-c
identified as ligand (positive bead with monolayer of cells) [3]: identified

c-d-G-L-G-HoSer-T-c
identified as ligand (positive bead with monolayer of cells) [5, 7]: identified

c-d-G-L-G-S-Bpa-c
identified as ligand (positive bead with monolayer of cells) [4, 6]: identified

c-d-G-M-G-HoSer-Nle-c
identified as ligand (positive bead with monolayer of cells) [1, 6]: identified

c-d-G-M-G-S-Cha-c
identified as ligand (positive bead with monolayer of cells) [1, 6]: identified

c-d-G-Nle-G-1-G-c
identified as ligand (positive bead with monolayer of cells) [3]: identified

c-d-G-Nle-G-Phe(3-Cl)-S-c
identified as ligand (positive bead with monolayer of cells) [4, 6]: identified

c-d-G-Nva-G-Phe (4-CN)-F-c
identified as ligand (positive bead with monolayer of cells) [4, 7]: identified

c-d-G-Phe(3-C l)-G-T-Y-c
identified as ligand (positive bead with monolayer of cells) [3]: identified

c-d-G-Phe(3-Cl)-G-Q-F-c
identified as ligand (positive bead with monolayer of cells) [5, 7]: identified

c-d-G-Phe(4-Me)-G-Aib-S-c
identified as ligand (positive bead with monolayer of cells) [5, 6]: identified

c-d-G-Phe(4-Me)-G-T-Pra-c
identified as ligand (positive bead with monolayer of cells) [4, 7]: identified

c-d-G-Phe(4Me)-G-P-Cha-c
identified as ligand (positive bead with monolayer of cells) [5, 7]: identified

c-d-G-Phg-G-P-F-c
identified as ligand (positive bead with monolayer of cells) [4, 7]: identified

c-d-G-Tyr(3-NO2)-G-Aic-Q-c
identified as ligand (positive bead with monolayer of cells) [3]: identified

c-d-G-Tyr(3-NO2)-G-F-L-c
identified as ligand (positive bead with monolayer of cells) [1, 6]: identified

c-d-G-Tyr(3-NO2)-G-Nle-H-c
identified as ligand (positive bead with monolayer of cells) [4, 6]: identified

c-d-G-Tyr(3-NO2)-G-Phg-M-c
identified as ligand (positive bead with monolayer of cells) [4, 6]: identified

c-d-G-Tyr(3-NO2)-G-i-Pra-c
identified as ligand (positive bead with monolayer of cells) [1, 6]: identified

c-d-G-Tyr(3NO2)-G-Pra-G-c
identified as ligand (positive bead with monolayer of cells) [4, 7]: identified

c-d-G-Tyr(Me)-G-T-M-c
identified as ligand (positive bead with monolayer of cells) [5, 7]: identified

c-d-G-V-G-Hyp-HoSer-c
identified as ligand (positive bead with monolayer of cells) [5, 7]: identified

c-e-G-L-G-Nle-M-c
identified as ligand (positive bead with monolayer of cells) [2]: identified

c-e-G-N-G-S-(1-Nal)-c
identified as ligand (positive bead with monolayer of cells) [2]: identified

c-e-G-y-G-Hyp-W-c
identified as ligand (positive bead with monolayer of cells) [2]: identified

cDGLGDDc
identified as ligand (positive bead with monolayer of cells) [2]: identified
identified as ligand (positive bead with monolayer of cells) [1, 8]: identified

cDGMGSNc
identified as ligand for epithelial cells (epithelial cells): identified

cDGWGPNc
identified as ligand (positive bead with monolayer of cells) [2]: identified
identified as ligand (positive bead with monolayer of cells) [1, 8]: identified

cNGLGQYc
identified as ligand for epithelial cells (epithelial cells): identified

cNGLGRSc
identified as ligand for epithelial cells (epithelial cells): identified

cNGMGAYc
identified as ligand for epithelial cells (epithelial cells): identified

cNGQGAGc
identified as ligand for epithelial cells (epithelial cells): identified

cNGQGEQc
identified as ligand for epithelial cells (epithelial cells): identified

cNGQGPLc
identified as ligand for epithelial cells (epithelial cells): identified

cNGTGDGc
identified as ligand for epithelial cells (epithelial cells): identified

cNGYGSFc
identified as ligand for epithelial cells (epithelial cells): identified

cNGYGTTc
identified as ligand for epithelial cells (epithelial cells): identified

cRGNGTDc
identified as ligand for epithelial cells (epithelial cells): identified

cdGIGPQc
identified as ligand (positive bead with monolayer of cells) [4, 7]: identified

cdGLGFTc
identified as ligand (positive bead with monolayer of cells) [4, 7]: identified

cdGLGWGc
identified as ligand (positive bead with monolayer of cells) [5, 6]: identified

cdGLGYYc
identified as ligand (positive bead with monolayer of cells) [5, 7]: identified

cdGMGSAc
identified as ligand (positive bead with monolayer of cells) [1, 6]: identified

Source: patent US7262269B2, “Method for screening combinational bead library; ligands for cancer cells” (The Regents of University of California, priority 2001, dated 2007)
